The METLIN SMRT retention time set (Domingo-Almenara et al. 2019)

Assay: gradient 5% acetonitrile 3 min, to 50% in 2 min, to 85% in 15 min, held 3 min, 100 µL/min
Conditions: column: Zorbax Extend-C18 2.1 x 50 mm; eluents: water / acetonitrile, 0.1% formic acid
In short: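 Mixtures of ~100 pure standards were chromatographed on a Zorbax Extend-C18 column (2.1 × 50 mm, 1.8 μm) at 100 μL/min using water and acetonitrile, each with 0.1% formic acid. Detection used a quadrupole time-of-flight mass spectrometer in positive and negative ionization mode, and data collection spanned 3 months. Retention time was obtained from adduct peaks picked computationally and each checked manually.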

Structure (SMILES)	RP-LC retention time [s]
CCOC(=O)C1CCN(C(=O)C2CCc3nc(N(CC)CC)ncc3C2)CC1 (centres undefined)	630
CCCc1cc(N2CCN(C(=O)c3ccc(C#N)cc3)CC2)nc2nncn12	609
O=S(=O)(c1ccc2c(c1)CCC2)N1CCC(CN2CCCCCC2)CC1	708
COc1cccc(-c2nc(Cc3nc(-c4ccccc4OC)oc3C)no2)c1	1030
CN1C(=O)C2(CCN(C(=O)CCc3ccccc3)C2)c2ccccc21 (centres undefined)	803
O=C(c1cccc(F)c1)N1CCN(C(=O)c2nsc3ccccc23)CC1	760
O=C(c1cccc(OCC2CCCN(C(=O)C3CCCO3)C2)c1)N1CCCC1 (centres undefined)	718
COc1ccc(CC(=O)N2CCCC2c2nc(-c3ccc(OC)c(OC)c3)no2)cc1Cl (centres undefined)	911
O=C(NCc1ccco1)c1ccc(NC(=O)C2CCC2)cc1N1CCOCC1	750
COc1cccc(N2CCN(c3ccnc(SCC(=O)Nc4ccc5c(c4)OCO5)n3)CC2)c1	728
NS(=O)(=O)c1ccc(CCNC(=O)c2cnc3sccn3c2=O)cc1	568
CCOC(=O)c1ccc(NC2=NS(=O)(=O)C(c3ccc(F)cc3)=C2C)cc1	948
Cc1ccc(NS(=O)(=O)c2cc(-c3nc(C(C)(C)C)cs3)cs2)cc1	1210
COc1cccc(C2c3c(oc4ccc(C)cc4c3=O)C(=O)N2CCCN2CCOCC2)c1OC (centres undefined)	808
CCOc1ccccc1CN1CCc2nc(N3CCN(c4ncccn4)CC3)ncc2C1	672
CCOC(=O)c1c(S(=O)(=O)N2CCC(C(=O)NCc3ccccc3)CC2)c(C)n(C)c1C	795
Cc1ccc2c(c1)N(C(=O)N1CCC(C(=O)NCc3ccccc3)CC1)CCO2	820
Cn1c(=O)c2c(ncn2CC(=O)N2CCCC(c3nc(C4CCOCC4)no3)C2)n(C)c1=O (centres undefined)	613
CCCN1CCc2cccc3c2[C@H]1Cc1ccc(O)c(O)c1-3	652
COCCNC(=O)C1CCCN(C(=O)c2cc(C)cc(C)c2)C1 (centres undefined)	686
COc1cccc(-c2nc(C3CCN(S(=O)(=O)c4cc(C)c(C)cc4C)CC3)no2)c1	1280
Cc1noc(C2CN(C(=O)Nc3ccc(C)c(F)c3)CC23CCOCC3)n1 (centres undefined)	776
Cc1ccsc1C(=O)NCC(=O)Nc1nc2ccccc2[nH]1	613

Structure (SMILES)	RP-LC retention time [s]
Cc1cc(C)cc(NC(=O)Cn2c(C)nc3onc(C)c3c2=O)c1	802
O=C(NCC1(CO)CC1)c1ccc2nsnc2c1	602
O=C(Cc1ccc(Cl)cc1)Nc1cnc(N2CCCCC2)nc1	962
O=C(NCc1ccc(F)cc1)N1CCN(c2cc(-c3ccncc3)[nH]n2)CC1	611
O=C(Nc1ccccc1Cl)N1CCC(N2CCN(Cc3cccc(F)c3)C(=O)C2=O)CC1	749
CCCCCNC(=O)c1cn(C)nc1S(=O)(=O)N1CCSCC1	897
O=C(NCCc1ccncc1)C1CN(C(=O)c2ccncc2)CC12CCCCC2 (centres undefined)	551
c1ccc(-c2noc(-c3ccc(NCc4ccc5c(c4)OCO5)nc3)n2)cc1	1110
Cc1ccn2cc(-c3ccc(NC(=O)c4ccc(C(F)(F)F)cc4)cc3)nc2n1	739
CCOc1cc(C2NCCc3c2[nH]c2ccc(Cl)cc32)ccc1O (centres undefined)	671
CC1CS(=O)(=O)N(c2ccc(C(=O)NCCc3c[nH]c4ccccc34)cc2)C1=O (centres undefined)	780
COc1ccccc1NS(=O)(=O)c1cc2n(c1)CCN(C(C)C)C2=O	733
O=C(NCc1cc(-c2ccc3c(c2)OCO3)on1)c1cc(=O)c2ccccc2o1	758
CC1Cc2ccccc2N1C(=O)c1ccc(Cl)cc1 (centres undefined)	972
COc1cccc(C2Cn3nnc(-c4nc(-c5ccc(C)c(C)c5)no4)c3CO2)c1 (centres undefined)	1270
Cc1cnc(C(=O)NC2C[C@H]3CC[C@@H](C2)N3S(=O)(=O)c2c(C)noc2C)cn1 (some centres undefined)	726
Cc1ccc(OCc2nc(C)c(C(=O)N3CCC(C(N)=O)CC3)s2)cc1	696
O=C(c1cc2cc(Br)ccc2oc1=O)N1CCN(c2ccccn2)CC1	616
Cc1ccc(CNS(=O)(=O)c2cc(-c3nc(C)c(C)s3)cs2)cc1	1040
Cc1ccsc1CN1CCc2[nH]nc(C(=O)N3CCOCC3)c2C1	568
O=C(NC1(c2nc(-c3ccncc3)no2)CCCCC1)c1ccccc1	863
Cc1csc(-c2cc(S(=O)(=O)NC(C)C)cn2CC(=O)N2CCCC2)n1	769
CCC1CCCCN1C(=O)c1cnc2nc(C)ccc2c1Nc1ccc2c(c1)OCO2 (centres undefined)	623

Structure (SMILES)	RP-LC retention time [s]
CN(CC(=O)Nc1ccc(F)c(F)c1F)c1nc2c(Cl)cccc2s1	1000
Cc1nc(C)c(-c2nnc(NC(=O)c3cc(=O)c4ccccc4o3)o2)s1	653
CN(C1=NC(=O)/C(=C/c2cc(Cl)ccc2OCC(=O)O)S1)c1ccc(O)cc1	669
O=C(Cn1nc2c3sc(N4CCCCC4)nc3ncn2c1=O)Nc1ccc(F)c(Cl)c1	869
Cc1nc(Nc2ccccn2)sc1C(=O)N1CCSCC1	703
O=C(c1cccn1Cc1noc(-c2ccc(Cl)cc2)n1)N1CCCC1	1020
O=C(Cn1cccc(-c2nc(-c3ccc(Cl)cc3)no2)c1=O)Nc1ccc(F)cc1	956
CC1CN(C(=O)Cn2cc(SCC(=O)NCC3CCCO3)c3ccccc32)CC(C)O1 (centres undefined)	723
Cc1nnc(N2CCN(C(=O)Nc3ccc4c(c3)OCCO4)CC2)c2nn(-c3ccccc3)c(C)c12	679
CN(C)c1cccc(-c2nc(C3CC(=O)N(c4ccccc4)C3)no2)c1 (centres undefined)	1030
N#Cc1ccc(C(=O)OCc2nc3ccccc3s2)cc1	936
CCOc1ccc(NC(=O)c2cc(=O)c3cc(CC)ccc3o2)c2cccnc12	693
CCc1nc2cc(N3CCC(C(=O)N4CCN(CC)CC4)CC3)cnc2nc1CC	590
COc1cccc(CNC(=O)c2cc3c(=O)n(C)ccc3n2C)c1	663
O=C1NCCCn2cc(S(=O)(=O)Nc3ccccc3F)cc21	633
COc1ccccc1-c1nc(C2CCN(C(=O)c3cccc4[nH]ccc34)CC2)no1	652
C=CCN1C(=O)COc2ccc(-c3csc(NC(=O)CC)n3)cc21	837
Clc1cccc(CN2CCN(c3cnn4c(C5CC5)nnc4c3)CC2)c1	750
CCC(=O)NCC12CCCC=C1N(C)C(=O)CC2 (centres undefined)	648
O=C(NCc1ccccn1)c1cccn1Cc1noc(-c2ccc(Cl)cc2)n1	743
CCOc1ccc(NC(=O)c2oc3cc(Br)ccc3c2C)c2cccnc12	800
COCCN1CCC(N2CCCN(S(=O)(=O)c3ccc(C)cc3)CC2)C1=O (centres undefined)	591
Cc1ccc(CNC(=O)C2CCN(c3nc4cccnc4s3)CC2)o1	704

Structure (SMILES)	RP-LC retention time [s]
CCCc1cc(N2CCN(C(=O)C(C)Oc3ccccc3)CC2)nc2nnc(C)n12 (centres undefined)	656
CCn1cc(-c2nc(C(=O)Nc3cc(OC)ccc3OC)cs2)c2cccnc21	1170
COc1ccc(-c2noc(C3CC(=O)N(c4cc(Cl)ccc4OC)C3)n2)cc1OC (centres undefined)	884
CC1=C(c2ccc(Cl)cc2)S(=O)(=O)N=C1N1CCC(C(=O)NCCN2CCOCC2)CC1	592
O=C(O)c1ccccc1-c1c2ccc(=O)c(O)c-2oc2c(O)c(O)ccc12	702
CC(C)NC(=O)N1CCCC(c2cccc(C(=O)NCc3ccccc3F)c2)C1 (centres undefined)	854
COC[C@@H]1CN(Cc2c(OC)cccc2OC)C[C@H]1c1ccncc1	656
COc1ccccc1NC(=O)N1CCc2[nH]cnc2C1c1ccncc1 (centres undefined)	540
CCOc1ccc(-c2noc(CSc3nccn3-c3ccccc3)n2)cc1OC	856
CCNc1nc(-c2nnc(-c3cccc(C)c3)o2)nc2ccccc12	932
CCN1CCN(C(=O)CC2Sc3ncccc3N(CC)C2=O)CC1 (centres undefined)	576
CCOC(=O)c1c(S(=O)(=O)N2CCC(C(=O)Nc3nc(C)cs3)CC2)c(C)n(C)c1C	780
Cc1cc(NC(=O)Cn2c(=O)oc3ccccc32)n(-c2nc3c(F)cccc3s2)n1	1040
COc1ccc(Cl)cc1S(=O)(=O)N1CCC(CN2CCCCC2)CC1	584
COC(=O)C1=C(CN2CCSCC2)NC(=O)NC1c1ccccc1Cl (centres undefined)	621
O=C(Nc1ccc2c(c1)OCO2)N1CCN(Cc2ccccc2)c2ncccc21	732
CCc1ccc(NS(=O)(=O)c2c(C)sc(C)c2-c2cc(C(F)(F)F)on2)cc1	1240
O=C(C1CCOCC1)N1CCC(Oc2nccnc2N2CCOCC2)C1 (centres undefined)	598
CC(C)c1ccc(OCC(=O)N(Cc2ccc(Br)o2)C2CCS(=O)(=O)C2)cc1 (centres undefined)	1050
COc1ccc(-c2ccnc3nc(CCc4ccc(OC)c(OC)c4)nn23)c(F)c1	867
